Reference: patent US6677157B1, “Method of diagnosis of prostate cancer” (Uropath Pty Ltd., A.C.N., priority 1998, dated 2004)

Tested on: mixed lymphocyte reaction
Assay: Effect of keratan sulphate on a mixed lymphocyte reaction
Assay type: cell-based
Details: 20 μg/ml
Method: The function of keratan sulphate in prostate tissue is unknown. It is known, however, that GAG compounds are important in the prevention of autoimmune bonne diseases (forms of arthritis). In order to determine whether keratan sulphate may have an immune regulatory effect it was assessed by intorducing it into a mixed lymphocyte reaction. […] At markedly diluted lymphocyte ratios of >270:1 no effect was evident (see FIG. 2).

For keratan sulphate, the “reduction of mixed lymphocyte reaction” value (lymphocyte ratios of 10, 30 and 90:1) was 50% and the “effect on mixed lymphocyte reaction” value (markedly diluted lymphocyte ratios of >270:1) was “no effect”.
